In PMC7083880 (Nature Communications, 2020):

Columns and labels:
[1] = test system: p53 readthrough protein in Calu-6 cells; test: p53 function: luciferase under promoter with two p53-responsive elements, Calu-6; format: cell-based, human
Excerpt: The three leftmost lanes show twofold serial dilutions of untreated HeLa cell extract. The molecular weight is indicated to the left of each gel. b Schematic representation of the construct used to measure the function of p53. The construct carries a cDNA encoding the firefly luciferase under a promoter having two p53-responsive elements (underlined). […] The level of p21 mRNA is related to the amount of functional p53 protein synthesized in the cell. The results presented in panels b and c are representative of at least two independent experiments., p-values (p) were calculated using Student’s t-test. Source data are provided as a Source Data file.
Although DAP clearly promoted the synthesis of full-length proteins from UGA-nonsense-mutation-containing mRNAs, it was necessary to ascertain that the readthrough protein was functional. […] The first involved measuring the transcriptional activity of the p53 readthrough protein in Calu-6 cells transfected with an expression vector carrying the cDNA encoding firefly luciferase under the control of a promoter with two p53-responsive elements (Fig. 2b)[33]. Upon DMSO treatment, only basal luciferase activity was detected, reflecting promoter leakage (Fig. 2c). […] The second assay used the p53 target gene p21 (ref. [44]).

[2] = molecular target: T1, CTU1 (Homo sapiens, UniProt Q7Z7A3); test: UGA readthrough luciferase assay with CTU1 overexpression; format: cell-based;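 as to luciferase activity, average: DAP exposure for 24 h before luciferase measurement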;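 as to luciferase activity, exp2: DAP exposure for 24 h before luciferase measurement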
T1 construct: host or cells: HeLa
T1 sequence (Q7Z7A3 1-348): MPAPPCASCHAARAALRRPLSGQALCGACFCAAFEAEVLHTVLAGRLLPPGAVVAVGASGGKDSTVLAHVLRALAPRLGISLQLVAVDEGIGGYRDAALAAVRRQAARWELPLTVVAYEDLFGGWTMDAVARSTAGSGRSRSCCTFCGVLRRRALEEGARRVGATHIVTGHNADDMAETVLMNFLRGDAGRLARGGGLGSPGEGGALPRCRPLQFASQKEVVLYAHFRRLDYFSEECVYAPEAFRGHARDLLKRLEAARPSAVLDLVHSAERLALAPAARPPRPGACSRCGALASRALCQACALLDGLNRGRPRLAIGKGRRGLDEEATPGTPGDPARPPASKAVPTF
Excerpt: Firefly luciferase from HEK293FT cells transfected with the Fluc-int-UGA construct was immunoprecipitated and digested with trypsin. The MS/MS spectrum of the peptide containing the PTC position and the sequence determination are shown. The upper red and blue sequences indicate the amino acids validated, respectively, by detection of Nter and Cter peptide fragments (b and y ion series). Peptide fragments y6 and y7 clearly identify tryptophan (W) at the PTC position. The black peaks correspond to non-attributed mass-to-charge ratio (m/z) values. […] Readthrough efficiency was determined by measuring luciferase activity in HeLa cells co-transfected with the firefly luciferase construct described in Fig. 1b and with increasing amounts of an expression vector for either FTSJ1 or CTU1 (0.5, 1, or 2 µg). The empty expression vector (E.v.) was used as control. […] The experiment was performed twice and the results of both experiments (Exp1 and Exp2) are shown. c Western blot analysis of FTSJ1 and CTU1. d 2′-O-methylation analysis of tRNA^Trp, tRNA^SER, and tRNA^GLN by RiboMethSeq. […] A molecular weight marker is indicated to the left of each gel. p-values (p) were calculated using Student’s t-test. Source data are provided as a Source Data file.
Among the enzymes modifying tRNAs liable to recognize a stop codon by extended wobbling, human FTSJ1 (TRM7 in yeast) exclusively modifies tRNAs involved in UGA readthrough. In addition to other tRNA targets, FTSJ1 methylates the cytosine at position 34 of tRNA^Trp. Inhibition of this modification could increase the capacity of tRNA^Trp to misdecode and recognize the UGA stop codon. […] FTSJ1 and CTU1 overexpression were assessed by western-blot analysis (Fig. 5c).

[3] = test system: wild-type TP53 in HeLa cells; test: p53 function: luciferase under promoter with two p53-responsive elements, HeLa; format: cell-based, human

SMILES: Nc1nc(N)c2[nH]cnc2n1 [DAP, 2,6-diaminopurine]
- Luciferase activity under p53-responsive promoter, in words [1]: significantly increased
- Luciferase activity, p53-responsive promoter construct (DMSO = 1) ([1]; 6.25µM, average): 1.454
- Luciferase activity, p53-responsive promoter construct (DMSO = 1) ([1]; 6.25µM, experiment 1): 1.606
- Luciferase activity, p53-responsive promoter construct (DMSO = 1) ([1]; 6.25µM, experiment 2): 1.415
- Luciferase activity, p53-responsive promoter construct (DMSO = 1) ([1]; 6.25µM, experiment 3): 1.341
- Luciferase activity, p53-responsive promoter construct (DMSO = 1) ([1]; 25µM, average): 2.545
- Luciferase activity, p53-responsive promoter construct (DMSO = 1) ([1]; 25µM, experiment 1): 2.235
- Luciferase activity, p53-responsive promoter construct (DMSO = 1) ([1]; 25µM, experiment 2): 2.893
- Luciferase activity, p53-responsive promoter construct (DMSO = 1) ([1]; 25µM, experiment 3): 2.507
- luciferase activity, average ([2]; 0.5µg CTU1, 0.39µM): 1294.38
- luciferase activity, exp1 ([2]; 0.5µg CTU1, 0.39µM): 850.5
- luciferase activity, exp1*1,5 ([2]; 0.5µg CTU1, 0.39µM): 1275.75
- luciferase activity, exp2 ([2]; 0.5µg CTU1, 0.39µM): 1313
- luciferase activity, average ([2]; 0.5µg CTU1, 0.78µM): 1925.25
- luciferase activity, exp1 ([2]; 0.5µg CTU1, 0.78µM): 1235
- luciferase activity, exp1*1,5 ([2]; 0.5µg CTU1, 0.78µM): 1852.5
- luciferase activity, exp2 ([2]; 0.5µg CTU1, 0.78µM): 1998
- luciferase activity, average ([2]; 0.5µg CTU1, 1.56µM): 3744.75
- luciferase activity, exp1 ([2]; 0.5µg CTU1, 1.56µM): 2474
- luciferase activity, exp1*1,5 ([2]; 0.5µg CTU1, 1.56µM): 3711
- luciferase activity, exp2 ([2]; 0.5µg CTU1, 1.56µM): 3778.5
- luciferase activity, average ([2]; 0.5µg CTU1, 6.25µM): 19050.9
- luciferase activity, exp1 ([2]; 0.5µg CTU1, 6.25µM): 10689.5
- luciferase activity, exp1*1,5 ([2]; 0.5µg CTU1, 6.25µM): 16034.2
- luciferase activity, exp2 ([2]; 0.5µg CTU1, 6.25µM): 22067.5
- luciferase activity, average ([2]; 0.5µg CTU1, 25µM): 76730.1
- luciferase activity, exp1 ([2]; 0.5µg CTU1, 25µM): 40518.5
- luciferase activity, exp1*1,5 ([2]; 0.5µg CTU1, 25µM): 60777.8
- luciferase activity, exp2 ([2]; 0.5µg CTU1, 25µM): 92682.5
- luciferase activity, average ([2]; 0.5µg CTU1, 100µM): 153887
- luciferase activity, exp1 ([2]; 0.5µg CTU1, 100µM): 108746
- luciferase activity, exp1*1,5 ([2]; 0.5µg CTU1, 100µM): 163120
- luciferase activity, exp2 ([2]; 0.5µg CTU1, 100µM): 144654
- luciferase activity, average ([2]; 0.5µg CTU1, 300µM): 196559
- luciferase activity, exp1 ([2]; 0.5µg CTU1, 300µM): 113240
- luciferase activity, exp1*1,5 ([2]; 0.5µg CTU1, 300µM): 169861
- luciferase activity, exp2 ([2]; 0.5µg CTU1, 300µM): 223256
- luciferase activity, average ([2]; 0.5µg CTU1, 600µM): 155354
- luciferase activity, exp1 ([2]; 0.5µg CTU1, 600µM): 75601
- luciferase activity, exp1*1,5 ([2]; 0.5µg CTU1, 600µM): 113402
- luciferase activity, exp2 ([2]; 0.5µg CTU1, 600µM): 197306
- luciferase activity, average ([2]; 1µg CTU1, 0.39µM): 1209.75
- luciferase activity, exp1 ([2]; 1µg CTU1, 0.39µM): 816
- luciferase activity, exp1*1,5 ([2]; 1µg CTU1, 0.39µM): 1224
- luciferase activity, exp2 ([2]; 1µg CTU1, 0.39µM): 1195.5
- luciferase activity, average ([2]; 1µg CTU1, 0.78µM): 1705.88
- luciferase activity, exp1 ([2]; 1µg CTU1, 0.78µM): 1099.5
- luciferase activity, exp1*1,5 ([2]; 1µg CTU1, 0.78µM): 1649.25
- luciferase activity, exp2 ([2]; 1µg CTU1, 0.78µM): 1762.5
- luciferase activity, average ([2]; 1µg CTU1, 1.56µM): 3430.38
- luciferase activity, exp1 ([2]; 1µg CTU1, 1.56µM): 2700.5
- luciferase activity, exp1*1,5 ([2]; 1µg CTU1, 1.56µM): 4050.75
- luciferase activity, exp2 ([2]; 1µg CTU1, 1.56µM): 2810
- luciferase activity, average ([2]; 1µg CTU1, 6.25µM): 22021
- luciferase activity, exp1 ([2]; 1µg CTU1, 6.25µM): 11418
- luciferase activity, exp1*1,5 ([2]; 1µg CTU1, 6.25µM): 17127
- luciferase activity, exp2 ([2]; 1µg CTU1, 6.25µM): 26915
- luciferase activity, average ([2]; 1µg CTU1, 25µM): 66719.5
- luciferase activity, exp1 ([2]; 1µg CTU1, 25µM): 39882
- luciferase activity, exp1*1,5 ([2]; 1µg CTU1, 25µM): 59823
- luciferase activity, exp2 ([2]; 1µg CTU1, 25µM): 73616
- luciferase activity, average ([2]; 1µg CTU1, 100µM): 131546
- luciferase activity, exp1 ([2]; 1µg CTU1, 100µM): 100876
- luciferase activity, exp1*1,5 ([2]; 1µg CTU1, 100µM): 151313
- luciferase activity, exp2 ([2]; 1µg CTU1, 100µM): 111779
- luciferase activity, average ([2]; 1µg CTU1, 300µM): 187075
- luciferase activity, exp1 ([2]; 1µg CTU1, 300µM): 116534
- luciferase activity, exp1*1,5 ([2]; 1µg CTU1, 300µM): 174802
- luciferase activity, exp2 ([2]; 1µg CTU1, 300µM): 199348
- luciferase activity, average ([2]; 1µg CTU1, 600µM): 146715
- luciferase activity, exp1 ([2]; 1µg CTU1, 600µM): 78978
- luciferase activity, exp1*1,5 ([2]; 1µg CTU1, 600µM): 118467
- luciferase activity, exp2 ([2]; 1µg CTU1, 600µM): 174963
- luciferase activity, average ([2]; 2µg CTU1, 0.39µM): 1088.5
- luciferase activity, exp1 ([2]; 2µg CTU1, 0.39µM): 733
- luciferase activity, exp1*1,5 ([2]; 2µg CTU1, 0.39µM): 1099.5
- luciferase activity, exp2 ([2]; 2µg CTU1, 0.39µM): 1077.5
- luciferase activity, average ([2]; 2µg CTU1, 0.78µM): 1344.88
- luciferase activity, exp1 ([2]; 2µg CTU1, 0.78µM): 885.5
- luciferase activity, exp1*1,5 ([2]; 2µg CTU1, 0.78µM): 1328.25
- luciferase activity, exp2 ([2]; 2µg CTU1, 0.78µM): 1361.5
- luciferase activity, average ([2]; 2µg CTU1, 1.56µM): 2818.25
- luciferase activity, exp1 ([2]; 2µg CTU1, 1.56µM): 1937
- luciferase activity, exp1*1,5 ([2]; 2µg CTU1, 1.56µM): 2905.5
- luciferase activity, exp2 ([2]; 2µg CTU1, 1.56µM): 2731
- luciferase activity, average ([2]; 2µg CTU1, 6.25µM): 9528.62
- luciferase activity, exp1 ([2]; 2µg CTU1, 6.25µM): 6020.5
- luciferase activity, exp1*1,5 ([2]; 2µg CTU1, 6.25µM): 9030.75
- luciferase activity, exp2 ([2]; 2µg CTU1, 6.25µM): 10026.5
- luciferase activity, average ([2]; 2µg CTU1, 25µM): 42062.1
- luciferase activity, exp1 ([2]; 2µg CTU1, 25µM): 22665.5
- luciferase activity, exp1*1,5 ([2]; 2µg CTU1, 25µM): 33998.2
- luciferase activity, exp2 ([2]; 2µg CTU1, 25µM): 50126
- luciferase activity, average ([2]; 2µg CTU1, 100µM): 109330
- luciferase activity, exp1 ([2]; 2µg CTU1, 100µM): 66277.5
- luciferase activity, exp1*1,5 ([2]; 2µg CTU1, 100µM): 99416.2
- luciferase activity, exp2 ([2]; 2µg CTU1, 100µM): 119244
- luciferase activity, average ([2]; 2µg CTU1, 300µM): 143657
- luciferase activity, exp1 ([2]; 2µg CTU1, 300µM): 87747.5
- luciferase activity, exp1*1,5 ([2]; 2µg CTU1, 300µM): 131621
- luciferase activity, exp2 ([2]; 2µg CTU1, 300µM): 155692
- luciferase activity, average ([2]; 2µg CTU1, 600µM): 121237
- luciferase activity, exp1 ([2]; 2µg CTU1, 600µM): 66046
- luciferase activity, exp1*1,5 ([2]; 2µg CTU1, 600µM): 99069
- luciferase activity, exp2 ([2]; 2µg CTU1, 600µM): 143406
- Luciferase activity, p53-responsive promoter construct (DMSO = 1) ([3]; 6.25µM, FL922): 0.8852
- Luciferase activity, p53-responsive promoter construct (DMSO = 1) ([3]; 6.25µM, FL932): 0.9803
- Luciferase activity, p53-responsive promoter construct (DMSO = 1) ([3]; 6.25µM, FL934): 0.8382
- Luciferase activity, p53-responsive promoter construct (DMSO = 1) ([3]; 6.25µM, average): 0.9012
- Luciferase activity, p53-responsive promoter construct (DMSO = 1) ([3]; 25µM, FL922): 0.7844
- Luciferase activity, p53-responsive promoter construct (DMSO = 1) ([3]; 25µM, FL932): 0.8921
- Luciferase activity, p53-responsive promoter construct (DMSO = 1) ([3]; 25µM, FL934): 1.092
- Luciferase activity, p53-responsive promoter construct (DMSO = 1) ([3]; 25µM, average): 0.9228
- Luciferase activity under p53-responsive promoter, in words ([3]; wild-type TP53): failure of DAP to cause a luciferase activity increase
